Data as given in patent publication US8802712B2, “Pyrazoloquinolines” (Merck Patent GmbH, priority 2010, dated 2014).
pIC50: −log10 of the molar value.

The compounds below were run against DNA-PK (Homo sapiens (Human), UniProt P78527) (assay: DNA-PK/Biochemical Assay (FlashPlate kinase assay)). Conditions: 5 μM ATP, 90 min, room temperature.
Procedure: The kinase assay was carried out in streptavidin-coated […] microtitre FlashPlates®. To this end, 1.5 μg of the DNA-PK/protein complex and 100 ng of biotinylated substrate, such as, for example, […] biotin-NH2 (“biotin-DNA-PK peptide”), in a total volume of 36.5 μl (34.25 mM HEPES/KOH, 7.85 mM Tris-HCl, 68.5 mM KCl, 5 μM ATP, 6.85 mM MgCl2, 0.5 mM EDTA, 0.14 mM EGTA, 0.69 mM DTT, pH 7.4), were incubated at room temperature for 90 min with 500 ng of DNA from calf thymus, 0.1 μCi of 33P-ATP and 1.8% of DMSO per well with or without the test compound. The reaction was stopped using 50 μl/well of 200 mM EDTA. After incubation for a further 30 min at room temperature, the liquid was removed. Each well was washed three times with 100 μl of 0.9% sodium chloride solution. A non-specific reaction (blank value) was determined using 10 μM of a proprietary kinase inhibitor. The radioactivity measurement was carried out by means of a TopCount. IC50 values were calculated in RS1. • Literature: Kashishian et al. (2003) Molecular Cancer Therapeutics 1257.

How did the pIC50 turn out when COc1cc2ncc3c(c(-c4ccc(C#N)cc4)nn3C)c2cc1OCc1ccnc(C#N)c1 [Compound 38, 4-[1-(4-Cyanophenyl)-7-methoxy-3-methyl-3H-pyrazolo[3,4-c]quinolin-8-yl-oxymethyl]pyridine-2-nitrile] was run?
The pIC50 was 6.30 to 7.00.

How did the pIC50 turn out when COc1cc2ncc3c(c(-c4ccc(C#N)cc4)nn3C)c2cc1OCc1nccs1 [Compound 39, 4-[7-Methoxy-3-methyl-8-(thiazol-2-ylmethoxy)-3H-pyrazolo[3,4-c]quinolin-1-yl]-benzonitrile] was run?
The pIC50 was > 7.00.

COc1cc2ncc3c(c(-c4ccc(C#N)cc4)nn3C)c2cc1OCc1cccc(N(C)C)c1 [Compound 41, 4-[8-(3-Dimethylamino-benzyloxy)-7-methoxy-3-methyl-3H-pyrazolo[3,4-c]-quinolin-1-yl]benzonitrile] was tested. Which pIC50 did it give?
The pIC50 was 6.30 to 7.00.

COc1cc2ncc3c(c(-c4ccc(C#N)cc4)nn3C)c2cc1OCc1cscn1 [Compound 42, 4-[7-Methoxy-3-methyl-8-(thiazol-4-ylmethoxy)-3H-pyrazolo[3,4-c]quinolin-1-yl]-benzonitrile] was tested. Which pIC50 did it give?
The pIC50 was > 7.00.

COc1cc2ncc3c(c(-c4ccc(C#N)cc4)nn3C)c2cc1OCc1cncs1 [Compound 43, 4-[7-Methoxy-3-methyl-8-(thiazol-5-ylmethoxy)-3H-pyrazolo[3,4-c]quinolin-1-yl]-benzonitrile] was tested. Which pIC50 did it give?
Its pIC50 is > 7.00.

COc1cc2ncc3c(c(-c4ccc(C#N)cc4)nn3C)c2cc1OCc1cccc(CN2CCN(C)CC2)c1 [Compound 44, 4-{7-Methoxy-3-methyl-8-[3-(4-methylpiperazin-1-yl-methyl)benzyloxy]-3H-pyrazolo[3,4-c]quinolin-1-yl}-benzonitrile] was tested. Which pIC50 did it give?
Its pIC50 is < 6.30.

How did the pIC50 turn out when COc1cc2ncc3c(c(-c4ccc(C#N)cc4)nn3C)c2cc1OCc1cccc(-c2csc(C)n2)c1 [Compound 45, 4-{7-Methoxy-3-methyl-8-[3-(2-methylthiazol-4-yl)-benzyloxy]-3H-pyrazolo-[3,4-c]quinolin-1-yl}-benzonitrile] was run?
The pIC50 was 6.30 to 7.00.

COc1cc2c(cc1OCCN(C)C)ncc1c2c(-c2ccc(C#N)cc2)nn1C [Compound 46, 4-[7-(2-Dimethylamino-ethoxy)-8-methoxy-3-methyl-3H-pyrazolo[3,4-c]quinolin-1-yl]benzonitrile] was tested. Which pIC50 did it give?
Its pIC50 is < 6.30.

With COc1cc2c(cc1OCC(O)CO)ncc1c2c(-c2ccc(C#N)cc2)nn1C (centres unmarked) [Compound 47, 4-[7-(2,3-Dihydroxypropoxy)-8-methoxy-3-methyl-3H - pyrazolo[3,4-c]quinolin-1-yl]-benzonitrile] as the compound, how does the pIC50 read?
Its pIC50 is < 6.30.

COc1cc2ncc3c(c(-c4ccc(C#N)cc4)nn3C)c2cc1OC(C(=O)NCCN(C)C)c1ccc(F)cc1 (centres unmarked) [Compound 49, 2-[1-(4-Cyano-phenyl)-7-methoxy-3-methyl-3H-pyrazolo-[3,4-c]quinolin-8-yl-oxy]-N-(2-dimethyl-aminoethyl)-2-(4-fluorophenyl)-acetamide] was tested. Which pIC50 did it give?
Its pIC50 is 6.30 to 7.00.

COc1cc2ncc3c(c(-c4ccc(C#N)cc4)nn3C)c2cc1OC(C(=O)NCCN1CCNCC1)c1ccc(F)cc1 (centres unmarked) [Compound 50, 2-[1-(4-Cyano-phenyl)-7-methoxy-3-methyl-3H-pyrazolo-[3,4-c]quinolin-8-yl-oxy]-2-(4-fluoro-phenyl)-N-(2 - piperazin-1-ylethyl)-acetamide] was tested. Which pIC50 did it give?
Its pIC50 is < 6.30.

COc1cc2ncc3c(c(-c4ccc(C#N)cc4)nn3C)c2cc1OC(C(=O)NOCC#N)c1ccc(F)cc1 (centres unmarked) [Compound 51, N-Cyanomethoxy-2-[1-(4-cyanophenyl)-7-methoxy-3-methyl-3H-pyrazolo[3,4-c]-quinolin-8-yloxy]-2-(4-fluorophenyl)-acetamide] was tested. Which pIC50 did it give?
Its pIC50 is 6.30 to 7.00.

With COc1cc2ncc3c(c(-c4ccc(C#N)cc4)nn3C)c2cc1OC(C(=O)NCCS(N)(=O)=O)c1ccc(F)cc1 (centres unmarked) [Compound 52, 2-[1-(4-Cyano-phenyl)-7-methoxy-3-methyl-3H-pyrazolo-[3,4-c]quinolin-8-yl-oxy]-2-(4-fluoro-phenyl)-N-(2-sulfamoylethyl)-acetamide] as the compound, how does the pIC50 read?
Its pIC50 is 6.30 to 7.00.

With COc1cc2ncc3c(c(-c4ccc(C#N)cc4)nn3C)c2cc1OC(C(=O)NO)c1ccc(F)cc1 (centres unmarked) [Compound 53, 2-[1-(4-Cyano-phenyl)-7-methoxy-3-methyl-3H-pyrazolo-[3,4-c]quinolin-8-yloxy]-2-(4-fluoro-phenyl)-N-hydroxy-acetamide] as the compound, how does the pIC50 read?
The pIC50 was > 7.00.

With COc1cc2ncc3c(c(-c4ccc(C#N)cc4)nn3C)c2cc1OC(C(=O)NC(=N)N)c1ccc(F)cc1 (centres unmarked) [Compound 54, N-[2-[1-(4-Cyano-phenyl)-7-methoxy-3-methyl-3H-pyrazolo-[3,4-c]quinolin-8-yl-oxy]-2-(4-fluoro-phenyl)acetyl]-guanidine] as the compound, how does the pIC50 read?
Its pIC50 is > 7.00.

How did the pIC50 turn out when COCCNC(=O)C(Oc1cc2c(cc1OC)ncc1c2c(-c2ccc(C#N)cc2)nn1C)c1ccc(F)cc1 (centres unmarked) [Compound 55, 2-[1-(4-Cyano-phenyl)-7-methoxy-3-methyl-3H-pyrazolo-[3,4-c]quinolin-8-yloxy]-2-(4-fluoro-phenyl)-N-(2-methoxyethyl)-acetamide] was run?
The pIC50 was > 7.00.

CCn1nc(-c2ccc(C#N)cc2F)c2c3cc(OC)c(OC)cc3ncc21 [Compound 57, 4-(3-Ethyl-7,8-dimethoxy-3H-pyrazolo[3,4-c]quinolin-1-yl)-3-fluorobenzonitrile] was tested. Which pIC50 did it give?
The pIC50 was 6.30 to 7.00.

How did the pIC50 turn out when CCCCn1nc(-c2ccc(C#N)cc2)c2c3cc(OC)c(OC)cc3ncc21 [Compound 58, 4-(3-Butyl-7,8-dimethoxy-3H-pyrazolo[3,4-c]quinolin-1-yl)-benzonitrile] was run?
Its pIC50 is < 6.30.

With CCCn1nc(-c2ccc(C#N)cc2)c2c3cc(OC)c(OC)cc3ncc21 [Compound 59, 4-(7,8-Dimethoxy-3-propyl-3H-pyrazolo[3,4-c]quinolin-1-yl)-benzonitrile] as the compound, how does the pIC50 read?
Its pIC50 is 6.30 to 7.00.

With COc1cc2ncc3c(c(-c4ccc(C#N)cc4)nn3C(C)C)c2cc1OC [Compound 60, 4-(3-Isopropyl-7,8-dimethoxy-3H-pyrazolo[3,4-c]quinolin-1-yl)benzonitrile] as the compound, how does the pIC50 read?
The pIC50 was 6.30 to 7.00.

How did the pIC50 turn out when COc1cc2ncc3c(c(-c4ccc(C#N)cc4)nn3CC(C)C)c2cc1OC [Compound 61, 4-(3-lsobutyl-7,8-dimethoxy-3H-pyrazolo[3,4-c]quinolin-1-yl)benzonitrile] was run?
Its pIC50 is < 6.30.

With COc1cc2ncc3c(c(-c4ccc(C#N)cc4)nn3C3CC3)c2cc1OC [Compound 62, 4-(3-Cyclopropyl-7,8-dimethoxy-3H-pyrazolo[3,4-c]-quinolin-1-yl)benzonitrile] as the compound, how does the pIC50 read?
The pIC50 was 6.30 to 7.00.

How did the pIC50 turn out when C=CCn1nc(-c2ccc(C#N)cc2)c2c3cc(OC)c(OC)cc3ncc21 [Compound 63, 4-(3-Allyl-7,8-dimethoxy-3H-pyrazolo[3,4-c]quinolin-1-yl)-benzonitrile] was run?
The pIC50 was 6.30 to 7.00.

COc1cc2ncc3c(c(-c4ccc(C#N)cc4F)nn3Cc3cccnc3)c2cc1OC [Compound 64, 4-(7,8-Dimethoxy-3-pyridin-3-ylmethyl-3H-pyrazolo[3,4-c]-quinolin-1-yl)-3-fluoro-benzonitrile] was tested. Which pIC50 did it give?
The pIC50 was < 6.30.

How did the pIC50 turn out when COc1cc2ncc3c(c(-c4ccc(C#N)cc4)nn3C#N)c2cc1OC [Compound 65, 1-(4-Cyanophenyl)-7,8-dimethoxypyrazolo[3,4-c]-quinoline-3-carbonitrile] was run?
Its pIC50 is 6.30 to 7.00.

How did the pIC50 turn out when COc1cc2ncc3c(c(-c4ccc(C#N)cc4)nn3CC#N)c2cc1OC [Compound 66, 4-(3-Cyanomethyl-7,8-dimethoxy-3H-pyrazolo[3,4-c]-quinolin-1-yl)benzonitrile] was run?
Its pIC50 is > 7.00.

How did the pIC50 turn out when COc1cc2ncc3c(c(-c4ccc(C#N)cc4)nn3CC(=O)O)c2cc1OC [Compound 67, [1-(4-Cyanophenyl)-7,8-dimethoxypyrazolo[3,4-c]-quinolin-3-yl]acetic acid] was run?
Its pIC50 is 6.30 to 7.00.

COc1cc2ncc3c(c(-c4ccc(C#N)cc4)nn3CC(N)=O)c2cc1OC [Compound 68, 2-[1-(4-Cyanophenyl)-7,8-dimethoxypyrazolo[3,4-c]-quinolin-3-yl]acetamide] was tested. Which pIC50 did it give?
Its pIC50 is 6.30 to 7.00.

How did the pIC50 turn out when COc1cc2ncc3c(c(-c4ccc(C#N)cc4)nn3C(F)F)c2cc1OC [Compound 69, 4-(3-Difluoromethyl-7,8-dimethoxy-3H-pyrazolo[3,4-c]-quinolin-1-yl)benzonitrile] was run?
Its pIC50 is > 7.00.

With COCc1cc(-c2nn(C)c3cnc4cc(OC)c(OC)cc4c23)ccc1C#N [Compound 71, 4-(7,8-Dimethoxy-3-methyl-3H-pyrazolo[3,4-c]quinolin-1-yl)-2-methoxymethyl-benzonitrile] as the compound, how does the pIC50 read?
The pIC50 was > 7.00.

With COC(=O)c1cc(-c2[nH]nc3cnc4cc(OC)c(OC)cc4c23)ccc1C#N [Compound 72, 2-Cyano-5-(7,8-dimethoxy-3H-pyrazolo[3,4-c]quinolin-1-yl)benzoic acid methyl ester] as the compound, how does the pIC50 read?
Its pIC50 is > 7.00.

With COc1cc2ncc3n[nH]c(-c4ccc(C#N)c(C(=O)O)c4)c3c2cc1OC [Compound 73, 2-Cyano-5-(7,8-dimethoxy-3H-pyrazolo[3,4-c]quinolin-1-yl)benzoic acid] as the compound, how does the pIC50 read?
The pIC50 was > 7.00.

With COc1cc2ncc3n[nH]c(-c4ccc(C#N)c(-c5ccccc5)c4)c3c2cc1OC [Compound 74, 5-(7,8-Dimethoxy-3H-pyrazolo[3,4-c]quinolin-1-yl)biphenyl-2-carbonitrile] as the compound, how does the pIC50 read?
The pIC50 was < 6.30.

CCN1CCN(c2ccc(-c3nn(C)c4cnc5cc(OC)c(OC)cc5c34)cc2)CC1 [Compound 75, 1-[4-(4-Ethylpiperazin-1-yl)-phenyl]-7,8-dimethoxy-3-methyl-3H-pyrazolo[3,4-c]-quinoline] was tested. Which pIC50 did it give?
Its pIC50 is 6.30 to 7.00.

How did the pIC50 turn out when COc1cc2ncc3c(c(-c4ccccc4F)nn3C)c2cc1OC [Compound 76, 1-(2-Fluorophenyl)-7,8-dimethoxy-3-methyl-3H-pyrazolo[3,4-c]quinoline] was run?
Its pIC50 is > 7.00.
